Assay results as given in patent US8476448B2, “Solid form of 4-[[(6-chloropyridin-3-yl)methyl](2,2-difluoroethyl)amino]furan-2(5H)-one” (Bayer Cropscience AG, priority 2009, dated 2013).

Test: Stability of the novel solid form on prolonged storage
Format: physicochemical

## O=C1C=C(N(Cc2ccc(Cl)nc2)CC(F)F)CO1 [novel solid form, 4-[[(6-chloropyridin-3-yl)methyl](2,2-difluoroethyl)amino]furan-2(5H)-one]
  thermodynamic stability / conversion into another form: not converted into another form
